In patent publication US5470852A, “Tetrahydroprotoberberine quaternary ammonium compounds useful in for treating arrhythmia” (priority 1991, dated 1995):
Where two headings read alike, the source gives them in different places.

Columns and labels:
[1] = system: Langendorff's perfused rat hearts; assay: Ischemia/reperfusion-induced arrhythmias, I13 in perfusate, Langendorff's perfused rat hearts; type: cell-based
Description: FIG. 2. Influence of I13 in perfusate on the time course of reperfusion-induced arrhythmias in Langendorff's perfused rat hearts

[2] = system: dogs; assay: Ouabain-induced arrhythmia in dogs; type: in vivo, dog; conditions: for Incidence of arrhythmia: I13 iv 3 mg/kg, lidocaine iv 12 mg/kg
Protocol: (iv, 12 mg/kg) on ouabain induced arrhythmia in dogs
(Ouabain administration for 30 min)

[3] = system: various experimental arrhythmic models; assay: Overall antiarrhythmic, anti-VF and anti-ischemic activity (summary); type: in vivo
[4] = system: anaesthetized rats; conditions: for Arrhythmic scores / Lethal risk / Antiarrhythmic effect: X ± SD; for Incidence of VF: n=10; for Death / animals with VF / animals without VF: of n=10; for therapeutic index (TI), VF / therapeutic index (TI), arrhythmias: rat, in vivo
[5] = system: hypertrophic rat heart; assay: Reperfusion-induced VF and VT in hypertrophic rat heart (L-thyroxine); type: in vivo
Protocol: 4. In the model of hypertrophic rat heart muscle disease caused by long term injections of L-thyroxine, high incidence of VF has been induced in vitro and in vivo when compared with the control after low perfusion-reperfusion or ischemia-reperfusion protocol. […] (shown in Tab 6)
Effect of I13 (100 mg/kg, ig administration at 1 hour before experiment)
on reperfusion-induced VF and VT in hypertrophic rat heart, a
myopathy induced by injecting L-thyroxin

[6] = system: anaesthetized rats; assay: animal or person; conditions: Rattus norvegicus
[7] = 100 mg/kg ig 1 hour before, n=10

COc1ccc2c(c1OC)C[N+]1(Cc3ccc(Cl)cc3)CCc3cc4c(cc3C1C2)OCO4 (stereo not shown) [Compound I13, 7-(4-chlorobenzyl)-5,8,13,13a-tetrahydroberberine chloride]
protection against VT and VF induced by ischemia and reperfusion ([1]; 3 μmol/L): effective protection against the VT and VF
ke ([1]; 3 μmol/L (FIG. 2)): 0.030 min⁻¹
ke ([1]; 10 μmol/L (FIG. 2)): 0.020 min⁻¹
Incidence of arrhythmia ([2]; 0 min (before administration)): 97 ± 5%
Incidence of arrhythmia ([2]; 5 min): 83 ± 22%
Incidence of arrhythmia ([2]; 10 min): 72 ± 31%
Incidence of arrhythmia ([2]; 15 min): 59 ± 36%
Incidence of arrhythmia ([2]; 20 min): 45 ± 43%
Incidence of arrhythmia ([2]; 25 min): 40 ± 38%
Incidence of arrhythmia ([2]; 30 min): 27 ± 34%
Incidence of arrhythmia ([2]; 35 min): 26 ± 34%
Incidence of arrhythmia ([2]; 40 min): 14 ± 33%
Incidence of arrhythmia ([2]; 45 min): 12 ± 31%
Incidence of arrhythmia ([2]; 50 min): 11 ± 28%
Incidence of arrhythmia ([2]; 60 min): 8 ± 20%
inhibition of ouabain-induced arrhythmias ([2]; dogs): markedly inhibited
antiarrhythmic effect compared with lidocaine ([2]; i.v. gtt. 0.1 mg/kg/min for 30 mins vs lidocaine 0.4 mg/kg/min): the same antiarrhythmic effect as lidocaine
anti-arrhythmic activity relative to lidocaine ([2]; ouabain, dogs): 4 times
reoccurrence of arrhythmia ([2]; within 4 hour period): lack of reoccurrence of arrhythmia within a 4 hour period
inhibition of ventricular fibrillation and myocardial ischemia ([3]; in vivo): inhibits ventricular fibrillation and myocardial ischemia
protection against arrhythmia, VF and myocardial ischemic injury ([3]; in vivo): advanced protection against arrhythmia, ventricular fibrillation (VF) and myocardial ischemic injury
antiarrhythmic effects ([3]; various experimental arrhythmic models): marked antiarrhythmic effects
anti-arrhythmic activity relative to lidocaine ([4]; i.v.): 10 times
inhibition of arrhythmias and VF induced by left coronary artery ligation ([4]; i.v. or p.o.): significantly inhibited
Arrhythmic scores ([4]; iv 0.1 mg/kg): 2.4 ± 2.2
Lethal risk ([4]; iv 0.1 mg/kg): 75 ± 30
Antiarrhythmic effect ([4]; iv 0.1 mg/kg, coronary occlusion 5 min): 0.25 ± 0.26
Antiarrhythmic effect ([4]; iv 0.1 mg/kg, coronary occlusion 10 min): 1.7 ± 2.1
Incidence of VF ([4]; iv 0.1 mg/kg): 30%
Death ([4]; iv 0.1 mg/kg): 3
animals with VF ([4]; iv 0.1 mg/kg): 3
animals without VF ([4]; iv 0.1 mg/kg): 4
Antiarrhythmic effect ([4]; iv 0.1 mg/kg, reperfusion 0.17 min): 2.2 ± 2.5
Antiarrhythmic effect ([4]; iv 0.1 mg/kg, reperfusion 0.33 min): 2.1 ± 2.1
Antiarrhythmic effect ([4]; iv 0.1 mg/kg, reperfusion 0.5 min): 2.4 ± 2.2
Antiarrhythmic effect ([4]; iv 0.1 mg/kg, reperfusion 1 min): 2.3 ± 2.6
Antiarrhythmic effect ([4]; iv 0.1 mg/kg, reperfusion 2 min): 1.6 ± 2.1
Antiarrhythmic effect ([4]; iv 0.1 mg/kg, reperfusion 3 min): 1.6 ± 2.1
Antiarrhythmic effect ([4]; iv 0.1 mg/kg, reperfusion 5 min): 1.6 ± 2.1
Antiarrhythmic effect ([4]; iv 0.1 mg/kg, reperfusion 6 min): 2.4 ± 3.4
Antiarrhythmic effect ([4]; iv 0.1 mg/kg, reperfusion 7 min): 0.20 ± 0.26
Antiarrhythmic effect ([4]; iv 0.1 mg/kg, reperfusion 10 min): 0.42 ± 0.19
Antiarrhythmic effect ([4]; iv 0.1 mg/kg, reperfusion 15 min): 0.42 ± 0.19
Antiarrhythmic effect ([4]; iv 0.1 mg/kg, reperfusion 25 min): 0.43 ± 0.19
Arrhythmic scores ([4]; iv 0.3 mg/kg): 1.2 ± 1.7
Lethal risk ([4]; iv 0.3 mg/kg): 57 ± 26
Antiarrhythmic effect ([4]; iv 0.3 mg/kg, coronary occlusion 5 min): 0.6 ± 1.3
Antiarrhythmic effect ([4]; iv 0.3 mg/kg, coronary occlusion 10 min): 0.9 ± 1.9
Incidence of VF ([4]; iv 0.3 mg/kg): 20%
Death ([4]; iv 0.3 mg/kg): 1
animals with VF ([4]; iv 0.3 mg/kg): 2
animals without VF ([4]; iv 0.3 mg/kg): 7
Antiarrhythmic effect ([4]; iv 0.3 mg/kg, reperfusion 0.17 min): 0.9 ± 1.3
Antiarrhythmic effect ([4]; iv 0.3 mg/kg, reperfusion 0.33 min): 1.3 ± 2.0
Antiarrhythmic effect ([4]; iv 0.3 mg/kg, reperfusion 0.5 min): 1.2 ± 1.7
Antiarrhythmic effect ([4]; iv 0.3 mg/kg, reperfusion 1 min): 0.8 ± 1.8
Antiarrhythmic effect ([4]; iv 0.3 mg/kg, reperfusion 2 min): 0.8 ± 1.8
Antiarrhythmic effect ([4]; iv 0.3 mg/kg, reperfusion 3 min): 0.22 ± 0.26
Antiarrhythmic effect ([4]; iv 0.3 mg/kg, reperfusion 5 min): 0.6 ± 1.2
Antiarrhythmic effect ([4]; iv 0.3 mg/kg, reperfusion 6 min): 0.8 ± 1.8
Antiarrhythmic effect ([4]; iv 0.3 mg/kg, reperfusion 7 min): 0.8 ± 1.8
Antiarrhythmic effect ([4]; iv 0.3 mg/kg, reperfusion 10 min): 0.8 ± 1.8
Antiarrhythmic effect ([4]; iv 0.3 mg/kg, reperfusion 15 min): 1.0 ± 2.2
Antiarrhythmic effect ([4]; iv 0.3 mg/kg, reperfusion 25 min): 0.2 ± 0.4
Arrhythmic scores ([4]; iv 1.0 mg/kg): 1.3 ± 1.7
Lethal risk ([4]; iv 1.0 mg/kg): 41 ± 0
Antiarrhythmic effect ([4]; iv 1.0 mg/kg, coronary occlusion 5 min): 0.4 ± 0.2
Antiarrhythmic effect ([4]; iv 1.0 mg/kg, coronary occlusion 10 min): 0.4 ± 0.2
Incidence of VF ([4]; iv 1.0 mg/kg): 0%
Death ([4]; iv 1.0 mg/kg): 0
animals with VF ([4]; iv 1.0 mg/kg): 0
animals without VF ([4]; iv 1.0 mg/kg): 10
Antiarrhythmic effect ([4]; iv 1.0 mg/kg, reperfusion 0.17 min): 1.4 ± 1.4
Antiarrhythmic effect ([4]; iv 1.0 mg/kg, reperfusion 0.33 min): 3.2 ± 2.0
Antiarrhythmic effect ([4]; iv 1.0 mg/kg, reperfusion 0.5 min): 1.6 ± 1.6
Antiarrhythmic effect ([4]; iv 1.0 mg/kg, reperfusion 2 min): 0.20 ± 0.26
Antiarrhythmic effect ([4]; iv 1.0 mg/kg, reperfusion 3 min): 0.20 ± 0.26
Antiarrhythmic effect ([4]; iv 1.0 mg/kg, reperfusion 5 min): 0.20 ± 0.26
Antiarrhythmic effect ([4]; iv 1.0 mg/kg, reperfusion 6 min): 0.20 ± 0.26
Antiarrhythmic effect ([4]; iv 1.0 mg/kg, reperfusion 7 min): 0.20 ± 0.26
Antiarrhythmic effect ([4]; iv 1.0 mg/kg, reperfusion 10 min): 0.20 ± 0.26
Antiarrhythmic effect ([4]; iv 1.0 mg/kg, reperfusion 15 min): 0.10 ± 0.21
Antiarrhythmic effect ([4]; iv 1.0 mg/kg, reperfusion 25 min): 0.10 ± 0.21
potency relative to propafenon ([4]; p.o.): considerably more potent
Arrhythmic scores ([4]; po 10 mg/kg): 2.7 ± 1.9
Antiarrhythmic effect ([4]; po 10 mg/kg, coronary occlusion 5 min): 0.4 ± 0.8
Antiarrhythmic effect ([4]; po 10 mg/kg, coronary occlusion 10 min): 0.50 ± 0.16
Incidence of VF ([4]; po 10 mg/kg): 20%
animals with VF ([4]; po 10 mg/kg): 2
animals without VF ([4]; po 10 mg/kg): 8
Antiarrhythmic effect ([4]; po 10 mg/kg, reperfusion 0.17 min): 2.6 ± 1.8
Antiarrhythmic effect ([4]; po 10 mg/kg, reperfusion 0.33 min): 2.7 ± 1.9
Antiarrhythmic effect ([4]; po 10 mg/kg, reperfusion 0.5 min): 1.9 ± 1.7
Antiarrhythmic effect ([4]; po 10 mg/kg, reperfusion 1 min): 1.9 ± 1.6
Antiarrhythmic effect ([4]; po 10 mg/kg, reperfusion 1.5 min): 1.4 ± 1.3
Antiarrhythmic effect ([4]; po 10 mg/kg, reperfusion 3 min): 1.1 ± 1.5
Antiarrhythmic effect ([4]; po 10 mg/kg, reperfusion 4 min): 1.2 ± 1.4
Antiarrhythmic effect ([4]; po 10 mg/kg, reperfusion 5 min): 1.0 ± 1.2
Antiarrhythmic effect ([4]; po 10 mg/kg, reperfusion 6 min): 0.8 ± 1.1
Antiarrhythmic effect ([4]; po 10 mg/kg, reperfusion 7 min): 0.8 ± 1.1
Antiarrhythmic effect ([4]; po 10 mg/kg, reperfusion 15 min): 0.8 ± 1.1
Antiarrhythmic effect ([4]; po 10 mg/kg, reperfusion 25 min): 0.8 ± 1.1
Arrhythmic scores ([4]; po 30 mg/kg): 3.2 ± 2.2
Lethal risk ([4]; po 30 mg/kg): 57 ± 26
Antiarrhythmic effect ([4]; po 30 mg/kg, coronary occlusion 5 min): 0 ± 0
Antiarrhythmic effect ([4]; po 30 mg/kg, coronary occlusion 10 min): 1.6 ± 1.6
Incidence of VF ([4]; po 30 mg/kg): 20%
Death ([4]; po 30 mg/kg): 1
animals with VF ([4]; po 30 mg/kg): 2
animals without VF ([4]; po 30 mg/kg): 7
Antiarrhythmic effect ([4]; po 30 mg/kg, reperfusion 0.17 min): 3.2 ± 1.2
Antiarrhythmic effect ([4]; po 30 mg/kg, reperfusion 0.33 min): 2.8 ± 2.1
Antiarrhythmic effect ([4]; po 30 mg/kg, reperfusion 0.5 min): 1.7 ± 1.7
Antiarrhythmic effect ([4]; po 30 mg/kg, reperfusion 1 min): 1.1 ± 1.5
Antiarrhythmic effect ([4]; po 30 mg/kg, reperfusion 1.5 min): 1.1 ± 1.5
Antiarrhythmic effect ([4]; po 30 mg/kg, reperfusion 3 min): 1.6 ± 2.4
Antiarrhythmic effect ([4]; po 30 mg/kg, reperfusion 4 min): 0.8 ± 1.3
Antiarrhythmic effect ([4]; po 30 mg/kg, reperfusion 5 min): 0.2 ± 0.2
Antiarrhythmic effect ([4]; po 30 mg/kg, reperfusion 6 min): 0.2 ± 0.2
Antiarrhythmic effect ([4]; po 30 mg/kg, reperfusion 7 min): 0.15 ± 0.24
Antiarrhythmic effect ([4]; po 30 mg/kg, reperfusion 15 min): 0.11 ± 0.22
Antiarrhythmic effect ([4]; po 30 mg/kg, reperfusion 25 min): 0.05 ± 0.17
Arrhythmic scores ([4]; po 100 mg/kg): 0.7 ± 0.2
Lethal risk ([4]; po 100 mg/kg): 41 ± 0
Antiarrhythmic effect ([4]; po 100 mg/kg, coronary occlusion 5 min): 0.20 ± 0.24
Antiarrhythmic effect ([4]; po 100 mg/kg, coronary occlusion 10 min): 0.3 ± 0.6
Incidence of VF ([4]; po 100 mg/kg): 0%
Death ([4]; po 100 mg/kg): 0
animals with VF ([4]; po 100 mg/kg): 0
animals without VF ([4]; po 100 mg/kg): 10
Antiarrhythmic effect ([4]; po 100 mg/kg, reperfusion 0.17 min): 0.10 ± 0.21
Antiarrhythmic effect ([4]; po 100 mg/kg, reperfusion 0.33 min): 0.05 ± 0.16
Antiarrhythmic effect ([4]; po 100 mg/kg, reperfusion 0.5 min): 0.4 ± 1.2
Antiarrhythmic effect ([4]; po 100 mg/kg, reperfusion 1 min): 0.05 ± 0.16
Antiarrhythmic effect ([4]; po 100 mg/kg, reperfusion 1.5 min): 0.05 ± 0.16
Antiarrhythmic effect ([4]; po 100 mg/kg, reperfusion 3 min): 0.05 ± 0.16
Antiarrhythmic effect ([4]; po 100 mg/kg, reperfusion 4 min): 0.05 ± 0.16
Antiarrhythmic effect ([4]; po 100 mg/kg, reperfusion 5 min): 0.05 ± 0.16
Antiarrhythmic effect ([4]; po 100 mg/kg, reperfusion 6 min): 0.05 ± 0.16
Antiarrhythmic effect ([4]; po 100 mg/kg, reperfusion 7 min): 0.05 ± 0.16
Antiarrhythmic effect ([4]; po 100 mg/kg, reperfusion 15 min): 0.05 ± 0.16
Antiarrhythmic effect ([4]; po 100 mg/kg, reperfusion 25 min): 0.05 ± 0.16
therapeutic index (TI), VF ([4]; iv): 35
therapeutic index (TI), arrhythmias ([4]; iv): 26
therapeutic index (TI), VF ([4]; po): 92
therapeutic index (TI), arrhythmias ([4]; po): 70
Duration of VF [5, 7]: 2.0 ± 3.0 min
Duration of VT [5, 7]: 0.4 ± 0.8 min
Incidence of VF [5, 7]: 30%
Incidence of VT [5, 7]: 20%
inhibition of incidence of VF and VT ([5]; p.o. 100 mg/kg one hour prior to ischemia): clearly inhibited the incidence of VF and VT
ED50 ([6]; iv): 0.16 mg/kg
ED50 ([6]; iv, read-out: ED50 against VF): 0.16 mg/kg
ED50 ([6]; iv, read-out: ED50 against arrhythmias): 0.22 mg/kg
ED50 ([6]; po): 16.5 mg/kg
ED50 ([6]; po, read-out: ED50 against VF): 20 mg/kg
ED50 ([6]; po, read-out: ED50 against arrhythmias): 16.5 mg/kg
